Assay: Boiling temperature at pressure P
Conditions: Liquid, Ebulliometric method (Recirculating still)

ClCCCl [1,2-dichloroethane]
Conditions | Boiling temperature at pressure P [°C]
60.01 kPa | 67.30
66.68 kPa | 70.70
73.35 kPa | 73.40
80.02 kPa | 76.30
86.69 kPa | 78.90
101.35 kPa | 84.10
